Data from patent US5120322A, “Method and apparatus for treatment of fibrotic lesions” (Lathrotec, Inc., priority 1990, dated 1992).
Where a name gives a salt, the structure may show the parent alone. Read-outs that look alike come from different tables or passages of the source. Each block holds one compound with its values, some of them ahead of it.

Experiments:
[1] = system: skin and other surrounding tissues; details: cited from earlier work
[2] = system: scarred and blocked fallopian tubes; assay: Example 2: fallopian tube stenosis-infertility; format: in vivo, human; details: BAPN-coated silastic tube stint; four to six week healing phase
From the text: A patient having scarred and blocked fallopian tubes as a result of infection has incisions made in the scar tissue and a BAPN- coated silastic tube stint placed in the fallopian tube after one week and left in place during the healing phase. The stint is continuously maintained in contact with the fresh wound and is changed two or three times during the four to six week healing phase as the lathyrogenic agent leaches off the surface of the silastic stint and is incorporated into the newly healing scar. The newly formed scar takes the shape of the stint.

[3] = system: collagen crosslinking; details: cited from earlier work
[4] = Decomposition of BAPN in ointment, gels or solutions; format: physicochemical; details: decomposition into ammonia, aminonitrile and CO2
[5] = systemic administration, humans; cited from earlier work
[6] = system: full thickness dermal scar around the elbow; assay: Example 1: burn scar-elbow; format: in vivo, human; details: 5.0 mM BAPN-F and/or 20-25 mM D-penicillamine jelly or BAPN-F gauze (40 mg/100 cm^2); four to six weeks
Description: This restricts use. The hard scar is surgically "released" under general anesthesia by cutting in several places with or without a skin graft. The patient then has a lathyrogen applied and is placed in an elbow dynamic splint. This allows the elbow to be protected and at the same time to fully exercise the joint on a daily basis with or without the supervision of a physical therapist.
A lathyrogen jelly with 5.0 mM of BAPN-F and/or 20-25 mM D-penicillamine or a BAPN-F ]impregnated gauze (40 mg/100 cm^2 of gauze) is continuously applied to the wound during its healing phase beginning 4-8 days after surgical treatment and continued for four to six weeks in combination with physical therapy.

[7] = system: tracheal injury; assay: Example 10: trachea; format: in vivo, human; details: silastic stint coated with 5.0 mM BAPN-F or D-Penicillamine; five or six weeks
Description: The patient suffering tracheal injury either due to a tracheostomy on an emergency basis or secondary to an automobile accident has primary anastomosis of the trachea resulting in a severe scar and impairment of the airway. The scar is excised and an endotracheal silastic stint coated with 5.0 mM BAPN-F or D-Penicillamine is put in place after one week and continuously maintained and changed on a weekly basis for five or six weeks during the healing phase. The lathyrogen is incorporated in the newly formed and healing wound where it allows the newly formed scar to be soft, plastic-like and conform to the diameter of the endotracheal stint.

[8] = system: transection of the membranous urethra; assay: Example 8: urethra-trauma; format: in vivo, human males; details: coated silicone catheter; about six weeks
From the text: Following fractured hips, 5-10% of human males suffer transection of the membranous urethra as it leaves the bladder. This transection requires primary anastamosis with catheter stinting, often resulting in severe scar formation and secondary bladder outlet obstruction. Balloon dilation (pressure balloon) to create new wound tissue may be performed or direct surgical resection removes the narrowed scar tissue. After one week, the original bladder catheter is exchanged for a silicone catheter coated with either BAPN-F or another lathyrogenic agent such as D-Penicillamine, which inhibits cross-linking (strong bonding) between scar collagen fibers. The coated catheter is continuously maintained in place and changed once a week for about six weeks during the healing phase.

[9] = rabbit, in vivo
Description: This example illustrates the efficacy of collagen- resorcinol-glutaraldehyde polymer as a BAPN-F delivery system. One hundred parts of medical grade purity collagen, prepared by a known procedure, is mixed with three hundred parts of water and heated until collagen dissolves to form a viscous solution. […] One milliliter of this mixture per kilogram of rabbit body weight was injected under the skin, after quick mixing of the appropriate volume of the mixture with 1/10 of its volume of 3 percent glutaraldehyde in a 5 ml plastic syringe. […] The rate of the release of the BAPN-F from the polymer was studied by direct measuring of the amount of BAPN-F in the blood, collected from the ear vein of the rabbit at time intervals shown in Table 1.
For comparison, the same amount of BAPN-F was injected under the skin of control rabbits as water solution.

[10] = system: common bile duct stenosis; assay: Example 11: common bile duct stenosis; format: in vivo, human; details: BAPN-F coated silastic tube; six weeks
From the text: The scar is partially resected and after one week an original silastic stint is exchanged for an intraluminal silastic tube coated with BAPN-F with one arm of the tube protruding into the duodenum. The BAPN-F leaches off the silastic tube and is incorporated into the newly formed scar, which is soft because BAPN-F blocks cross-linking. The tube is continuously maintained in place and on a weekly basis the patient returns to the gastroenterology lab where, under direct manipulation, the tube is exchanged every week for six weeks. Once healing is complete the tube is removed and the new lumen of the common bile duct is preserved. The patient is no longer jaundiced and fluids from the liver can pass into the duodenum uninhibited.

[11] = system: peritendinous, perineural adhesions; assay: Clinical effect of topically applied BAPN-F gauze; format: in vivo; details: 20-40 mg BAPN-F per 100 cm^2 of gauze, placed wet over the lesions
From the text: In order to obtain long shelf life of BAPN medications the drug should be kept dry and out of contact with water. For this reason administration of BAPN as an ointment, in gels or solutions is rather impractical, as the medication has to be freshly prepared every 6-8 weeks. 6-8 weeks is the time of detection of the first decomposition product of BAPN into ammonia, aminonitrile and CO2. This invention can overcome the above problem by incorporating a solution with the known concentration of BAPN into the dressing material (gauze, collagen sponge) with a known surface area. The dressing material may be soaked with a known volume of BAPN solution, frozen and freeze dried to complete dryness.

[12] = system: circumferential suture line scar of bladder and urethra; assay: Example 4: urethra-prostatic cancer; format: in vivo, human; details: silicone catheter coated with 5.0 mM BAPN-F; three weeks
Description: A patient with prostatic cancer detected with sonography and a candidate for total prostatectomy has the prostate removed and the cuff of the bladder sewn to the most proximal remaining portion of the urethra. This circumferential suture line often progresses to heavy scarring preventing complete emptying of the bladder. The scar is cut away under anesthesia and direct resectoscope vision and immediately stinted with a silicone catheter coated with 5.0 mM BAPN-F. The catheter remains in continuous direct contact with the new wound tissue during healing. The BAPN-F leaches from the surface of the catheter, thereby inhibiting hardening of the healing scar during the next three weeks. The catheter is changed on a weekly basis to renew the BAPN-F supply.

[13] = system: full thickness burn of the hand; assay: Example 5: burn scar-hand; format: in vivo, human; details: jelly containing 5 mM/L BAPN-F; four to six weeks
Description: A patient with a well healed full thickness burn of the hand has severe scarring of the fingers and hand in a claw-like form. The old scars are surgically released to create full mobility of the joints. The hand is placed in a "dynamic splint." The splint contains rubber band fixation to a rigid frame allowing the patient to exercise their fingers through a full range of motion. During the healing phase and on a daily basis, a jelly containing 5 mM/L of the lathyrogenic agent BAPN-F is continuously applied to the surgically "released" areas. The patient continues to exercise and use the dynamic splint during the healing phase over the next four to six weeks. […] The dynamic splint is removed. Healing is complete and range of motion restored.

[14] = system: burns in the esophagus; details: dogs, cited from earlier work
[15] = system: urethral stenosis; assay: Example 7: urethra-infection; format: in vivo, human; details: BAPN-F bonded silicone catheter; about six weeks
From the text: The old scar in the urethra is opened under direct surgical resection. Immediately afterward a silicone urethral bladder catheter is inserted. After one week, this catheter is exchanged for one with the lathyrogenic agent BAPN-F bonded onto its surface. The coated catheter is continuously maintained in place and changed ever week for about six weeks during the healing phase. During the healing phase new scar tissue is laid down. However, its strength is beneficially altered by the lathyrogen BAPN-F which inhibits the bonding of one protein scar fiber to the next protein scar fiber allowing the wound to be molded in the shape of the intraluminal stint (urinary bladder catheter).

Compound: N#CCCN [BAPN, Beta-aminopropionitrile]
- penetration of skin and other surrounding tissues (thickness) [1]: a few millimeters in thickness
- opening of the fallopian tube [2]: the opening of the fallopian tube is preserved and egg and sperm transport can now cross the previously blocked fallopian tube
- inhibition of crosslinking [3]: crosslinking can be inhibited
- time of detection of the first decomposition product [4]: 6-8 weeks
- systemic tolerance (therapeutic vs. toxic concentrations) [5]: therapeutic and toxic concentrations are so close that they cannot be systemically tolerated by humans

Compound: CC(C)(S)[C@@H](N)C(=O)O [D-Penicillamine]
- range of motion at the elbow [6]: the patient resumes full range of motion at the elbow
- scarring and airway dynamics [7]: no further scarring takes place, the medication and stint is discontinued and the patient returns to normal airway dynamics
- inhibition of crosslinking [3]: crosslinking can be inhibited
- opening after catheter removal [8]: a normal sized opening is present
- systemic tolerance (therapeutic vs. toxic concentrations) [5]: therapeutic and toxic concentrations are so close that they cannot be systemically tolerated by humans

- Plasma Level (BAPN-F) ([9]; 120 min): 3.2
- Plasma Level (BAPN-F) ([9]; 240 min): 2.9
- Plasma Level (BAPN-F) ([9]; 360 min): 2.1
- Plasma Level (BAPN-F) ([9]; 600 min): 1.0
- Plasma Level (BAPN-F) ([9]; 960 min): 0.1
- Plasma Level (BAPN-F) ([9]; 2880 min): 0
- Plasma Level (BAPN-F) ([9]; 4320 min): 0
- Plasma Level (BAPN-F) ([9]; 5760 min): 0
- Plasma Level (BAPN-F) ([9]; 10080 min): 0
Compound: Water
- time to maximum in serum [9]: reaches a maximum in serum within two hours after injection

Compound: N#CCCN [BAPN-F, Beta-aminopropionitrile fumarate]
- range of motion at the elbow [6]: the patient resumes full range of motion at the elbow
- lumen of the common bile duct, jaundice [10]: the new lumen of the common bile duct is preserved. The patient is no longer jaundiced
- clinical effect on fibrotic adhesions [11]: evident clinical effect of a topically applied gauze-placed wet over the lesions, such as peritendinous, perineural adhesions with prevention or reduction of the incidence of fibrotic adhesions
- scarring and airway dynamics [7]: no further scarring takes place, the medication and stint is discontinued and the patient returns to normal airway dynamics
- scarring of bladder-urethra suture line [12]: no new scarring takes place
- range of hand motion [13]: full range of motion without further restriction of hand motion
- opening after catheter removal [8]: a normal sized opening is present
- ingestion of food during treatment ([14]; esophageal burns): severe problems in the ingestion of food
- toxicity ([14]; systemically introduced): serious toxicity problems
- urination after stint removal [15]: normal unobstructed urination can proceed
